Where a SMILES comes first, the peptide text is derived from it. Bridges are numbered along the chain shown (N, C = ends).
Tests used:
female Wistar rats = experiment: partial restraint stress-induced hyperalgesia model; type: in vivo, rat; conditions: oral 0.3 and 3.0 μg/kg, distending pressure 15 mm Hg, p<0.0001, FIG. 7b
Method: Five groups of female Wistar rats (weighing 200-250 g each), were surgically prepared for electromyography as described (Morteau et al. 1994 Dig Dis Sci 39:1239-48) and were used to evaluate the effects of SEQ ID NO:3 on colorectal sensitivity and compliance after a 2 hour partial restraint stress session. Partial restraint stress (PRS), a relatively mild stress, was induced as previously described (Morteau et al. 1994 Dig Dis Sci 39:1239-48). Female rats were lightly anesthetized with diethyl ether and their shoulders, upper forelimbs and thoracic trunk were wrapped in a confining harness of paper tape to restrict, but not prevent body movements. Control sham-stress animals were anesthetized but not wrapped. […] Electrical activity was recorded with an electroencephalograph (Mini VIII, Alvar, Paris, France) using a short time constant (0.03 sec.) to remove low-frequency signals (<3 Hz) and a paper speed of 3.6 cm/minute. […] Colonic pressure and balloon volume were continuously monitored on a potentiometric recorder (L6514, Linseis, Selb, Germany) with a paper speed of 1.0 cm/minute. The number of spike bursts, corresponding to abdominal contractions, was evaluated per 5-minute period. Colorectal volumes were determined as the maximal volume obtained for each stage of distension using the potentiometric recorder. […] The values were expressed as mean±SEM.

[1] = bioavailability study in mice, LCMS detection; type: in vivo; conditions: CD1, mouse, serum, IV and oral, FIG. 10b, read-out: bioavailable
Method: A similar bioavailability study was performed in which LCMS rather than ELISA was used to detect SEQ ID NO:3. Initially, serum samples were extracted from the whole blood of exposed and control mice, then injected directly ([…]) onto an in-line solid phase extraction (SPE) column (Waters Oasis HLB 25 μm column, 2.0×15 mm direct connect) without further processing. The sample on the SPE column was washed with a 5% methanol, 95% dH2O solution (2.1 mL/min, 1.0 minute), then loaded onto an analytical column using a valve switch that places the SPE column in an inverted flow path onto the analytical column (Waters Xterra MS C8 5 μm IS column, 2.1×20 mm). The sample was eluted from the analytical column with a reverse phase gradient (Mobile Phase A: 10 mM ammonium hydroxide in dH2O, Mobile Phase B: 10 mM ammonium hydroxide in 80% acetonitrile and 20% methanol; 20% B for the first 3 minutes then ramping to 95% B over 4 min. and holding for 2 min., all at a flow rate of 0.4 mL/min.). At 9.1 minutes, the gradient returns to the initial conditions of 20% B for 1 min. SEQ ID NO:3 eluted from the analytical column at 1.45 minutes, and was detected by triple-quadrapole mass spectrometry (MRM, 764 (+2 charge state)>182 (+1 charge state) Da; cone voltage=30V; collision=20 eV; parent resolution=2 Da at base peak; daughter resolution=2 Da at base peak). […]

CD1 female mice = experiment: murine gastrointestinal transit assay, chronic dosing; type: in vivo, mouse; conditions: oral, daily for 5 days; SEQ ID NO:3 0.06 or 0.25 mg/kg; FIG. 4c
Method: The identical experiment was performed to determine if SEQ ID NO:3 is effective in a chronic dosing treatment regimen. Briefly, 8 week old CD1 female mice are dosed orally once a day for 5 days with either SEQ ID NO:3 (0.06 mg/kg or 0.25 mg/kg in 20 mM Tris pH 7.5) or vehicle alone (20 mM Tris pH 7.5). On the 5th day, a GIT assay is performed identical to that above except 200 μl of a 10% charcoal solution is administered. […] The results are shown side by side with acute dosing (1 day).

pepsin = pepsin (Sus scrofa, UniProt P00791); conditions: pH 2.0, 37° C., up to 3 h
pepsin, sequence (P00791 60-385): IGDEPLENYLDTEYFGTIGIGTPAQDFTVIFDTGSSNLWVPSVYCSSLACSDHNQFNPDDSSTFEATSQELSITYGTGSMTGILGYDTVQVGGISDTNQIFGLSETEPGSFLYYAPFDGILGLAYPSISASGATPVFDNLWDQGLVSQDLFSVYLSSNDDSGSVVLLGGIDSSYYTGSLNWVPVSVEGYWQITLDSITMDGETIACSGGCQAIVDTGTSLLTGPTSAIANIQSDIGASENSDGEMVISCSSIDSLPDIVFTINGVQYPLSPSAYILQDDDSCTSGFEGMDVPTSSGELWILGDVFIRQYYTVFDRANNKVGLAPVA
Method: Samples were collected at 0, 3, and 24 h for all conditions except pepsin digestion and the SGF. For the latter two conditions, samples were obtained at 0, 1, and 3 h. Negative control samples were prepared for initial and final time points. […] All samples were analyzed by LC/MS
500 μL samples of 100 U/mL pepsin (Pepsin porcine gastric mucosa; Sigma-Aldrich, P68871; U=release of 0.01 absorbance at 280 nm (A280) as TCA soluble hydrolysis products per min at 37° C. of hemoglobin) were prepared in the pepsin reaction buffer (100 mM HCl-KCl, pH 2.0) in 5 mL polystyrene round bottom tubes. To the control samples (0 and 24 h), 500 μL of a 1 M ammonium acetate (pepsin inhibitor) stock were added, for a final concentration of 0.5 M. All control and test samples (0, 1, and 3 h) were incubated at 37° C. for 5 min, while shaking. […] Samples were returned to the 37° C. shaking water bath. Reactions were quenched by the addition of 500 μL of 1 M ammonium acetate for a final concentration of 0.5 M (except to the control samples, which already contained 0.5 M ammonium acetate). Samples were cooled on ice and stored at 4° C. until analysis. Upon analysis, samples were transferred to a 1 mL 96-well plate. […] These standards were used to generate a standard curve for quantification of samples. Ten (10) μL injections were made of each sample and standard.

With C[C@@H]1NC(=O)[C@@H]2CCCN2C(=O)[C@H](CC(N)=O)NC(=O)[C@@H]2CSSC[C@H](N)C(=O)N[C@H]3CSSC[C@H](NC1=O)C(=O)N[C@@H]([C@@H](C)O)C(=O)NCC(=O)N[C@H](C(=O)N[C@@H](Cc1ccc(O)cc1)C(=O)O)CSSC[C@H](NC(=O)[C@H](Cc1ccc(O)cc1)NC(=O)[C@H](CCC(=O)O)NC3=O)C(=O)N2 [SEQ ID NO:3] (H-CCEYCCNPACTGCY-OH; disulfide 1-6, 2-10, 5-13; N-terminus and C-terminus assumed) the “response to CRD after partial restraint stress” value (female Wistar rats) was “reduced the response to CRD after PRS”, the bioavailability [1] was under 0.11% and the “gastrointestinal motility upon chronic dosing” value (CD1 female mice) was “effective”. The “Cleavage of SEQ ID NO: 3 by proteolytic substance” value (pepsin) was “not detectable”.

Source: US20090305993A1, “METHODS AND COMPOSITION FOR THE TREATMENT OF GASTROINTESTINAL DISORDERS” (IRONWOOD PHARMACEUTICALS, INC., priority 2006, published 2009)
